Test results from US20240182785A1, “COMPOUND, COMPOSITION, CURED PRODUCT, OPTICALLY ANISOTROPIC BODY, OPTICAL ELEMENT, AND LIGHT GUIDE ELEMENT” (FUJIFILM Corporation, priority 2021, published 2024).

Assays:
Format in all cases: physicochemical
[1] = Measurement of Δn (refractive index anisotropy), wedge-shaped liquid crystal cell; conditions: 550 nm, 30° C. or lower limit temperature of nematic phase +0 to 10° C.; some compounds extrapolated from 1/2 mixture with L-1-1
Protocol: The Δn of each of the compounds (the compounds A-1 to A-11 and the compounds B-1 and B-2), which are the compounds to be measured, was measured by a method using a wedge-shaped liquid crystal cell described on page 202 in the Liquid crystal handbook (edited by the liquid crystal handbook editorial board, published by Maruzen Co., Ltd., 2000). Δn was defined as a measured value at a wavelength of 550 nm at 30° C. or the lower limit temperature of the nematic phase +0° C. to 10° C. In a case of a compound which is liable to crystallize or a compound having no liquid crystallinity, evaluation was carried out using a mixture thereof with the other liquid crystal compound, and Δn was estimated from the extrapolated value of the measured value thereof. The following L-1-1 was used as the other liquid crystal compound. As the above mixture, a mixture obtained by mixing at a ratio of the compound to be measured/the L-1-1=1/2 (in terms of mass ratio) was used.
A case where Δn was 0.40 or more was evaluated as A, a case where Δn was 0.35 or more and less than 0.40 was evaluated as B, a case where Δn was 0.30 or more and less than 0.35 was evaluated as C, and a case where Δn was less than 0.30 was evaluated as D. The results are shown in Table 1.

[2] = Evaluation of durability of optically anisotropic layer (moisture-heat resistance test); conditions: rate of change in Re of cured layer (25 parts compound, 75 parts L-1), 136 hours at 100° C., humidity 95%
Protocol: (§1) As shown below, the light resistance and the durability of the optically anisotropic layer produced using the composition containing each of the compounds A-1 to A-11 and the compounds B-1 and B-2 were evaluated.
(§2) A coating liquid having the following composition was prepared and applied by spin-coating, onto a rubbing-treated glass attached with an alignment film. Each composition was irradiated with ultraviolet rays of 300 mJ/cm^2 through a filter that cuts light having a wavelength of 350 nm or less on a hot plate which had been heated to a temperature at which a nematic phase is shown, whereby an optically anisotropic layer for a light resistance/durability test was produced.
(§3) The polymerizable liquid crystal compound L-1 is a mixture obtained by mixing at a
(§4) ratio of the following L-1-1/L-1-2/L-1-3=84/14/2 (in terms of mass ratio).
(§5) Rate of change in Re (%)=[100×{|(Re after test)−(Re before test)|}/(Re before test)]
(§6) Re was measured with Axoscan manufactured by Axometrics Inc. at a wavelength of 550 nm, and the measurement temperature was set to room temperature.
The produced optically anisotropic layer was allowed to be left for 136 hours at 100° C. and a humidity of 95%, whereby a moisture-heat resistance test was carried out. The rate of change in Re before and after the durability test was evaluated, the durability in a case where the rate of change in Re was less than 10% was evaluated as A, and the durability in a case where the rate of change in Re was 10% or more was evaluated as B. The smaller the rate of change in Re, the more excellent the durability.

[3] = Evaluation of solubility in cyclopentanone; conditions: precipitation concentration in cyclopentanone at 25° C.
Protocol: The solubility of each of the compounds (the compounds A-1 to A-11 and the compounds B-1 and B-2) in cyclopentanone was evaluated.

[4] = Evaluation of liquid crystallinity (hot stage, polarization microscope); set-up: key: A case of having liquid crystallinity was evaluated as A; a case of having no liquid crystallinity was evaluated as B; conditions: heated on a hot stage
Protocol: The respective compounds (the compounds A-1 to A-11 and the compounds B-1 and B-2) were heated on a hot stage and observed with a polarization microscope, and the phase transition temperature was measured to evaluate the presence or absence of the liquid crystallinity. A case of having liquid crystallinity was evaluated as A, and a case of having no liquid crystallinity was evaluated as B. The results are shown in Table 1.
Since the compound A-8 has melting points of 200° C. or higher and undergoes a polymerization reaction during heating, liquid crystallinity could not be evaluated.

[5] = Evaluation of light resistance of optically anisotropic layer (Super Xenon Weather Meter); conditions: rate of change in Re of cured layer (25 parts compound, 75 parts L-1), 5 million lx, 50 hours, 63° C., 50% RH, oxygen-blocking
Protocol: as §1, §2, §3, §4
The produced optically anisotropic layers for light resistance/durability tests were irradiated with light using a Super Xenon Weather Meter SX75 manufactured by Suga Test Instruments Co., Ltd. Using KU-1000100 manufactured by King Seisakusho Co., Ltd. as a UV cut filter, a light resistance test was carried out by irradiation with 5 million lx of light for 50 hours under an oxygen-blocking condition. The temperature of the specimen to be tested (the temperature inside the test device) was set to 63° C. The relative humidity in the test device was 50% RH.
The Re of the optically anisotropic layer before and after the light resistance test was measured, the light resistance in a case where the rate of change in Re described below was less than 10% was evaluated as A, and the light resistance in a case where the rate of change in Re was 10% or more was evaluated as B. The smaller the rate of change in Re, the more excellent the light resistance.
as §5, §6

## C=CC(=O)OCCCCOc1ccc(C(=O)Nc2ccc(C#Cc3ccc4cc(OCCCCOC(=O)C=C)ccc4c3)cc2C(F)(F)F)cc1 [Compound B-2, reference compound]
[1]
  Δn: C (a case where Δn was 0.30 or more and less than 0.35 was evaluated as C)
[2]
  Durability: A (the durability in a case where the rate of change in Re was less than 10% was evaluated as A)
[3]
  Solubility: A (the solubility in a case where the precipitation concentration was 5% by mass or more was evaluated as A)
[4]
  Liquid crystallinity: A
[5]
  Light resistance: A (the light resistance in a case where the rate of change in Re described below was less than 10% was evaluated as A)
